# Laboratory results reported in US5318993A, “Antihyperlipidemic benzoquinones” (Bristol-Myers Squibb Company, priority 1993, dated 1994).
# Like-named read-outs stand apart in the source and are kept apart here.
# Assays:
# HepG2 cells = test: Cholesterol synthesis in HepG2 cell culture model (14C-acetate incorporation); type: cell-based, human; details: for activity at 10 µM: Homo sapiens, HepG2 cells, 4 hours incubation, read-out: Cholesterol Biosynthesis
# Experimental: (§1) The human hepatoma HepG2 cell culture model was employed to compare the intrinsic activities of the synthetic analogues relative to the tocotrienols. HepG2 cells were incubated with the indicated compounds for 4 hours at 10 μM. Cholesterol synthesis was assayed by ^14 C-acetate incorporation over the final hour of incubation, and HMG-CoA reductase suppression (specific activity) was assayed in the microsomal fraction isolated from parallel cultures at the end of the 4 hour incubation.
# [1] = In vivo hypocholesterolemic activity in normocholesterolemic chickens (serum lipid parameters); details: for response vs control in vivo at 4 mg/kg/day: Gallus gallus, po, 672 h
# Experimental: (§2) Hypocholesterolemic activity was evaluated for the synthetic analogues using γ-tocotrienol as a control in normocholesterolemic chickens. Newborn male chicks (6-10 for each group) were raised on a standard corn-soybean-based control diet for two weeks and then were switched to either control or experimental diets for four weeks. Drug treatment consisted of the addition of test compound to the corn-soybean-based. At the end of the feeding period, all the birds were fasted (about 36 hours) and refed (about 48 hours) to induce cholesterolgenic enzymes prior to sacrifice. The specific activity of HMG-CoA reductase, total serum cholesterol levels, HDL/LDL cholesterol pools, and triglyceride levels (data not shown) were examined (Table II).
# (§3) Effects of BMS Compounds on Lipid Parameters in Male
# (§4) Orally dosed for 4-weeks at 4 mg/kg/day
# HMG-CoA reductase [2] = target: T1, HMG-CoA reductase (Homo sapiens, UniProt P04035); test: HMG-CoA reductase suppression (specific activity, microsomal fraction of HepG2 cells); type: cell-based; details: 4 hours incubation, read-out: HMGR Suppression
# T1 construct: assayed in the microsomal fraction isolated from parallel cultures; endogenous in cells; host or cells: HepG2 (human hepatoma)
# T1 sequence (P04035 1-888): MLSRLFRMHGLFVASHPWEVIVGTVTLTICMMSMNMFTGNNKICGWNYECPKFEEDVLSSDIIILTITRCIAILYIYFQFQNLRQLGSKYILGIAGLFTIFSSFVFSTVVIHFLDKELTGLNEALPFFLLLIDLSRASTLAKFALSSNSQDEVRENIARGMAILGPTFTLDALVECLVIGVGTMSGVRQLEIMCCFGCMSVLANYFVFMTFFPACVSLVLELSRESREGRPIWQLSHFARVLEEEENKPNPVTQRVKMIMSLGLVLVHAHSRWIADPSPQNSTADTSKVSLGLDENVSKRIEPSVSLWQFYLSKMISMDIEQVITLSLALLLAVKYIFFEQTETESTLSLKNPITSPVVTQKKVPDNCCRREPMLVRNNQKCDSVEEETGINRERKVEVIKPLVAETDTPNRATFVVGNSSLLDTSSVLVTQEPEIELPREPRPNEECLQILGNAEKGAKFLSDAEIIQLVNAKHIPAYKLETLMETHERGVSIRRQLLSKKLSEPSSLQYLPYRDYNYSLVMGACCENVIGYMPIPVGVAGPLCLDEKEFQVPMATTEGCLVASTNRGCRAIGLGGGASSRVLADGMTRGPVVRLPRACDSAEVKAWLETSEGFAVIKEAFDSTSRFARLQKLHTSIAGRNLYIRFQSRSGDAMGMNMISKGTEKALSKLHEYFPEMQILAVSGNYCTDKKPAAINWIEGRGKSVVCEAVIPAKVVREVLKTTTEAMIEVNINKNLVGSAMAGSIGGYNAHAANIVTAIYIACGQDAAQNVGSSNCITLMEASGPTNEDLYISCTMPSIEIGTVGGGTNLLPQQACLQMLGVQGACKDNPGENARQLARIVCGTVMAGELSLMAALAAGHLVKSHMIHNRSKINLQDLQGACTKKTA
# Experimental: as §1
# HMG-CoA reductase [3] = test: HMG-CoA reductase specific activity in normocholesterolemic chickens; type: in vivo; details: male chickens, orally dosed for 4 weeks at 4 mg/kg/day
# Experimental: as §2, §3, §4
# [4] = man, cited from earlier work
# [5] = system: submitochondrial particles; details: in words; cited from earlier work
# LDL = details: in words; cited from earlier work
# [6] = system: rat liver microsomes and mitochondrial membranes; details: in words; cited from earlier work
# [7] = male chickens, orally dosed for 4 weeks at 4 mg/kg/day, read-out: HDL-C
# [8] = male chickens, orally dosed for 4 weeks at 4 mg/kg/day, read-out: LDL-C
# [9] = male chickens, orally dosed for 4 weeks at 4 mg/kg/day, total serum cholesterol, read-out: Tot.-C
SMILES,activity at 10 µM (HepG2 cells),"response vs control in vivo at 4 mg/kg/day [1, 7]","response vs control in vivo at 4 mg/kg/day [1, 8]","response vs control in vivo at 4 mg/kg/day [1, 9]",other results
"CC(C)=CCC/C(C)=C/CC/C(C)=C/CC1=CC(=O)C=CC1=O [Example 10, 2-(3,7,11-Trimethyl-2(E),6(E),10-Dodecatrienyl)-2,5-Cyclohexadiene-4-Dione]",95%,–,–,–,–
"CC(C)=CCC/C(C)=C/CC/C(C)=C/CCC(O)CCC1=CC(=O)C=CC1=O (stereo not drawn) [Example 11, 2-(3-Hydroxy-7,11,15-Trimethyl-6(E),10(E),14-Hexadecatrienyl)-2,5-Cyclohexadiene-1,4-Dione]",75%,96.9%,80.1%,87.2%,–
"CC(C)=CCC/C(C)=C/CC/C(C)=C/CCC(O)CCC1=CC(=O)C(C)=C(C)C1=O (stereo not drawn) [Example 12, 5-(3-Hydroxy-7,11,15-Trimethyl-6(E),10(E),14-Hexadecatrienyl)-2,3-Dimethyl-2,5-Cyclohexadiene-1,4-Dione]",3%,95%,73%,82.7%,activity at 10 µM (HMG-CoA reductase [2]): 74%
"CC1=C(C)C(=O)C(CCC(C)(O)CC/C=C(\C)CCc2cccc(C(F)(F)F)c2)=CC1=O (stereo not drawn) [Example 13, 5-(3,7-Dimethyl-3-Hydroxy-9-[3-(Trifluoromethyl)phenyl]-6(E)-Nonenyl)-2,3-Dimethyl-2,5-cyclohexadiene-1,4-Dione]",–,75.6%,32%,57.7%,HMGR (HMG-CoA reductase [3]): 59.9 % of Control
"CC(C)=CCC/C(C)=C/CC/C(C)=C/CCC(C)(O)CCC1=CC(=O)c2ccccc2C1=O (stereo not drawn) [Example 14, 2-(3-Hydroxy-3,7,11,15-Tetramethyl-6(E),10(E),14-Hexadecatrienyl)-1,4-Naphthalene-1,4-dione]",10%,94.7%,69.4%,82.4%,–
"CC(C)=CCC/C(C)=C/CC/C(C)=C/CCC(C)(O)CCC1=CC(=O)C(C)=C(C)C1=O (stereo not drawn) [Example 15, 5-(3-Hydroxy-3,7,11,15-Tetramethyl-6(E),10(E),14-Hexadecatrienyl)-2,3-Dimethyl-2,5-cyclohexadiene-1,4-Dione]",89%,90.5%,59%,76.7%,"activity in the cholesterol suppression assay in vitro (HepG2 cells; in words): very active in the cholesterol suppression assay in vitro; cholesterol/HMGR suppression in vitro, relative to γ-tocotrienol (HepG2 cells; in words, refers to Table I): very similar cholesterol/HMGR suppression in vitro and in vivo; activity at 10 µM (HMG-CoA reductase [2]): 79%; activity in the chick model, relative to γ-tocotrienol ([1]; in words): comparable activity to γ-tocotrienol in the chick model; cholesterol/HMGR suppression in vivo, relative to γ-tocotrienol ([1]; in words, refers to Table II): very similar cholesterol/HMGR suppression in vitro and in vivo; HMGR (HMG-CoA reductase [3]): 67.4 % of Control"
"CC(C)=CCC/C(C)=C/CC/C(C)=C/CCC(C)(O)CCC1=CC(=O)C=CC1=O (stereo not drawn) [Example 16, 2-(3-Hydroxy-3,7,11,15-Tetramethyl-6(E),10(E),14-Hexadecatrienyl)-2,5-cyclohexadiene-1,4-Dione Hydrate]",74%,95.8%,94.9%,93.8%,–
COC1=C(OC)C(=O)C(CCCCCCCCCCO)=C(C)C1=O [Idebenone],–,–,–,–,absorption rate ([4]; in words): absorbed rapidly; intestinal absorption ([4]; in words): low intestinal absorption; bioavailability ([4]; low intestinal absorption): 15-30%
COc1c(O)c(C)c(C/C=C(\C)CC/C=C(\C)CC/C=C(\C)CC/C=C(\C)CC/C=C(\C)CC/C=C(\C)CC/C=C(\C)CC/C=C(\C)CC/C=C(\C)CCC=C(C)C)c(O)c1OC [Ubiquinol],–,–,–,–,lipid peroxidation inhibition [5]: inhibits lipid peroxidation
"CC(C)=CCC/C(C)=C/CC/C(C)=C/CC/C(C)=C/CC1=C(C)C(=O)c2ccccc2C1=O [Vitamin K2, reference compound]",–,105%,146%,116%,"cholesterol levels in vivo ([1]; in words, Vitamin K2 (n=4), refers to Table II): appears to actually elevate cholesterol levels"
COc1c(O)c(C)c(C/C=C(\C)CC/C=C(\C)CC/C=C(\C)CC/C=C(\C)CC/C=C(\C)CC/C=C(\C)CC/C=C(\C)CC/C=C(\C)CC/C=C(\C)CCC=C(C)C)c(O)c1OC [ubiquinol-10],–,–,–,–,LDL oxidation inhibition (LDL): inhibitor of LDL oxidation; LDL oxidation inhibition efficiency relative to tocopherol (LDL): much more efficient than tocopherol
COC1=C(OC)C(=O)C(C/C=C(\C)CC/C=C(\C)CC/C=C(\C)CC/C=C(\C)CC/C=C(\C)CC/C=C(\C)CC/C=C(\C)CC/C=C(\C)CC/C=C(\C)CCC=C(C)C)=C(C)C1=O [ubiquinone],–,–,–,–,effect on tocopherol [6]: sparing effect on tocopherol
"CC(C)=CCC/C(C)=C/CC/C(C)=C/CC[C@]1(C)CCc2cc(O)c(C)c(C)c2O1 [γ-Tocotrienol, reference compound]",29%,–,–,–,activity at 10 µM (HMG-CoA reductase [2]): 65%; response vs control in vivo at 4 mg/kg/day ([1]; read-out: HDL-C): 87%; response vs control in vivo at 4 mg/kg/day ([1]; read-out: LDL-C): 54.8%; response vs control in vivo at 4 mg/kg/day ([1]; read-out: Tot.-C): 76.3%
